Measurements from paper PMC11786100, “Chronic GIPR agonism results in pancreatic islet GIPR functional desensitisation” (Molecular Metabolism, 2025).
Like-named read-outs stand apart in the source and are kept apart here.

Columns and labels:
[1] = Peptide stability in complete medium with dispersed islet cells (cAMP bioactivity assay); type: in vitro ADME, mouse
Method: AD-293 cells were added to a 12-well plate and maintained in 2 ml complete DMEM. 1 μg of specified plasmid DNA was added to each well alongside Lipofectamine 2000 (Thermo Fisher, UK). cAMP production was quantified 24 hours following transfection using homogenous time resolved fluorescence (HTRF), specifically the cAMP-Gs Dynamic 2 kit (Cisbio, France). Peptides and cells were diluted in DMEM + 1% P/S + 0.1% BSA. For peptide stability testing, cells, fresh peptide and peptide incubated with dispersed islet cells were diluted in RPMI-1640 (Thermo Fisher, UK) + 10% FBS + 1% P/S. 10 μl of peptide and 10 μl of cell suspension were added in duplicate to an opaque 96-well plate (Grenier Bio-One, Austria) and incubated at 37°C for 30 minutes. 10 μl of cAMP-d2 and anti-cAMP cryptate, both diluted in lysis buffer, were added in quick succession as per the manufacturer’s protocol. The plates were then incubated at room temperature for 45 minutes and read using the SpectraMax i3x (Molecular Devices, US).
Three-parameter curve fitting was applied.

[2] = system: HFD-induced obese mice; test: Acute fast-refeed food intake study; type: in vivo, mouse; settings: 200 nmol/kg; vehicle and GIP108 (30 nmol/kg) pre-treated HFD-induced obese mice; n = 37–40
Method: (§1) In all in vivo studies, mice were randomised by body weight into groups. Mice received a 50 μL subcutaneous injection of saline (0.9% sodium chloride) or peptide at a specified dose, diluted in saline. Peptide dosing was in nmol per kg of total body weight. For the assessment of the chronic effects of GIP108, mice were injected daily for 15 days. Body composition was measured by EchoMRI on day −1 and day 15. An intraperitoneal glucose tolerance test (IPGTT) (2 g/kg) was conducted on day 14, following 6 h of fasting and 2 h after peptide injection. Non-fasting plasma leptin (ab199082, Abcam, UK), adiponectin (ab226900, Abcam, UK) and amino acids (ab65347, Abcam, UK) were measured on day 16. For the assessments of in vivo GIPR desensitisation, mice were injected at 17:00 with vehicle or GIP108 (30 nmol/kg) prior to an acute food intake study/IPGTT/insulin bleeds conducted the following day. Full details of the in vivo studies are provided in the supplementary methods.
Food intake was measured at t=30, t=60, t=120 and t=240 mins.

[3] = system: murine hypothalamic neurons; test: cADDis cAMP imaging in primary hypothalamic neurons; type: cell-based, mouse; settings: 100 nM and 1 μM, 5-minute stimulation, n=4
Method: (§2) Primary cultures of mouse hypothalamic neurons and dispersed pancreatic islets were transduced with the Green Up cADDis biosensor (Montana Molecular, US). Pancreatic islets from CAMPER^Pdx−1-CreERT2 and CAMPER^Som-Cre mice were not transduced. Cells were pre-treated with peptides as specified, dissolved in culture media. Following 4 h or overnight incubation and a 1-hour washout period, cells were imaged using an epifluorescence microscope at baseline (t = 3 min), following peptide addition (t = 10 min, unless specified otherwise), and following 3-isobutyl-1-methylxanthine (IBMX) (500 μM) and forskolin (FSK) (50 μM) addition (t = 3 min) to maximally stimulate the sensor. In pre-treatment experiments, islet cell fluorescence was normalised to the IBMX/FSK response which was set as 100%. In non-pre-treatment experiments, islet and neuronal cell fluorescence was normalised to both the baseline and IBMX/FSK response. The area-under-the-curve (AUC) for each cell was quantified. Full details of isolation, transduction, plating, imaging and image analysis is provided in the supplementary methods.
Primary cultures of hypothalamic neurons were prepared from 6-week-old male and female mice as described previously [2*]. A minor difference was that the neuronal pellet was resuspended in Neurobasal-A medium containing 0.25% Glutamax, 2% B27 and 25 ng/ml NGF (all Thermo Fisher, UK) (neuronal culture media).
Hypothalamic neurons: 100 μL cell suspension of neurons in neuronal culture media was seeded on 35 mm petri dish (MatTek Corporation), pre-coated with 0.01% poly-D-lysine hydrobromide. […]
cAMP quantification from the raw islet/neuronal images was performed using Fiji v1.54f (NIH). […] The fluorescence intensity of each ROI was measured at each time point. In pre-treatment experiments, islet cell fluorescence was normalised to the maximal IBMX/FSK response which was set as 100%. For non-pre-treatment experiments, neuronal and islet cell fluorescence were normalised to both the baseline and maximal IBMX/FSK response. The AUC during peptide stimulation for each cell was quantified. […]

[4] = system: dispersed islet cells; test: cADDis cAMP concentration-response in dispersed islets; type: cell-based, mouse; settings: three-parameter fit, n=5, read-out: calculated EC50, cAMP in dispersed islets
Method: as §2
Dispersed islets: A cell suspension of dispersed islets in RPMI-1640 + 10% FBS + 1% P/S (islet complete media) was seeded onto square 96 well µ-plates (Ibidi, UK), coated with 0.01% poly-D-lysine hydrobromide (Sigma-Aldrich, UK) and 25 µg/ml mouse laminin (Thermo Fisher, UK). For cADDis experiments, cells were transduced with the Green Up cADDis biosensor (15 μL of cADDis, 1.5 μL of sodium butyrate per well: Montana Molecular, US). Cells were incubated overnight (37°C, 95%:5% O2:CO2 ratio).
Cells were imaged in Krebs buffer with 6 mM glucose and 0.1% BSA (unless 10% FBS was specified) at 37°C using an automated epifluorescence microscope (modified Nikon Ti-2E with LED illumination). Multiple fields of view (FOV) were imaged in parallel (for islets, multiple wells of a 96 well plate were imaged in parallel), allowing hundreds to thousands of cells to be imaged every minute throughout the time course. For all acquisitions, the first three minutes were baseline recording pre-peptide addition and the last three minutes were a positive control following IBMX (500 μM) and forskolin (50 μM) addition to maximally stimulate the sensor.
cAMP quantification from the raw islet/neuronal images was performed using Fiji v1.54f (NIH). For each acquisition, a flat-field (BaSiC [3*]) correction was applied, and intensity thresholding enabled cell-containing regions to be identified as regions-of-interest (ROIs). The fluorescence intensity of each ROI was measured at each time point. In pre-treatment experiments, islet cell fluorescence was normalised to the maximal IBMX/FSK response which was set as 100%. For non-pre-treatment experiments, neuronal and islet cell fluorescence were normalised to both the baseline and maximal IBMX/FSK response. The AUC during peptide stimulation for each cell was quantified. Neurons with an AUC greater than 75 (representing a response 15 % of the maximum IBMX/FSK response) were deemed responder neurons.
We aimed to determine appropriate pre-treatment doses of GIPR agonists which would produce detectable cAMP responses, indicating target engagement, and were compatible with an extended incubation in complete medium, which could influence ligand availability via binding to serum proteins. We first performed concentration-response analysis in dispersed islets transduced with cADDis in the presence of 10% FBS (Figure S2A, B, D, E).
To determine a sensible re-challenge dose of GIPR agonists, a further concentration-response analysis was conducted in cADDis-transduced dispersed islets in imaging buffer (Krebs buffer + 6 mM glucose + 0.1% BSA, i.e. without FBS) (Figure S2C, F). […] Therefore, 1 μM of GIP108 and 100 nM of GIP were chosen as peri-maximal re-stimulation doses for the remaining islet cAMP assays.
GLP-1R agonist pre-treatment dose selection was performed concurrently with GIPR agonist dose selection.

[5] = system: lean and HFD-induced obese mice; test: In vivo GIPR desensitisation: IPGTT and insulin bleeds; design: species or system mouse
Method: as §1
Mice were fasted at 08:00. For all studies, 20% glucose was administered at 14:00, with the injection volume adjusted to the body weight of the mouse such that each mouse received glucose at 2 g/kg. To assess effects of GIP108 on day 14 of the chronic study, mice were dosed with saline or GIP108 at a specified dose at 12:00. […] Blood glucose measurements were taken via tail vein venesection at baseline, t=15, t=30, t=60, t=90 and t=120 mins. Glucose AUC is calculated using y=0. Glucose readings were measured in mmol/L using the same GlucoRx glucometer.
Mice were fasted at 08:00. At 14:00, mice received an intraperitoneal injection with 20% glucose, with the injection volume adjusted to the body weight of the mouse such that each mouse received glucose at 2 g/kg. […] Blood samples were taken via tail vein venesection at baseline and t=15 minutes following injection.
Leptin, adiponectin and amino acids were quantified following chronic GIP108 administration. Plasma amino acids were measured using the Abcam L-amino acid assay kit (ab65347, Abcam, UK). Plasma adiponectin was measured using the Abcam mouse adiponectin ELISA kit (ab226900, Abcam, UK). Plasma leptin was measured using the Abcam mouse leptin ELISA kit (ab199082, Abcam, UK). All assays were performed according to the manufacturer’s protocol and were read using the SpectraMax i3x Microplate Reader (Molecular Devices, US).

[6] = 1 μM in complete medium with dispersed islet cells, cAMP bioactivity in mouse GIPR AD-293 cells

Row | Compound | concentration remaining from 0.5 nM after 24 hours [1] [nM] | concentration remaining from 5 nM after 24 hours [1] [nM] | food intake, acute fast-refeed study [2] | cAMP response of hypothalamic neurons [3] | EC50 ([4]; imaging buffer (Krebs buffer + 6 mM glucose + 0.1% BSA, without FBS)) [nM] | EC50 ([4]; in the presence of 10% FBS, stepwise addition) [nM] | stability at 4 hours [1, 6] | stability at 24 hours [1, 6] | glucose tolerance during IPGTT ([5]; hGIP 50 nmol/kg with i.p. glucose, lean and HFD-induced obese mice given s.c. vehicle 21 h prior, n = 14–16) | glucose tolerance during IPGTT ([5]; hGIP 500 nmol/kg, lean and obese mice pre-treated with GIP108 (30 nmol/kg), n=6-8)
1 | CCCCCCCCCCCCCCCC(=O)N[C@@H](CCC(=O)NCCCC[C@H](NC(=O)[C@H](C)NC(=O)[C@H](C)NC(=O)[C@H](CCC(N)=O)NC(=O)CNC(=O)[C@H](CCC(=O)O)NC(=O)[C@H](CC(C)C)NC(=O)[C@H](Cc1ccc(O)cc1)NC(=O)[C@H](CO)NC(=O)[C@H](CO)NC(=O)[C@@H](NC(=O)[C@H](CC(=O)O)NC(=O)[C@H](CO)NC(=O)[C@@H](NC(=O)[C@H](Cc1ccccc1)NC(=O)[C@@H](NC(=O)CNC(=O)[C@H](CCC(=O)O)NC(=O)[C@H](C)NC(=O)[C@@H](N)Cc1cnc[nH]1)[C@@H](C)O)[C@@H](C)O)C(C)C)C(=O)N[C@@H](CCC(=O)O)C(=O)N[C@@H](Cc1ccccc1)C(=O)N[C@H](C(=O)N[C@@H](C)C(=O)N[C@@H](Cc1c[nH]c2ccccc12)C(=O)N[C@@H](CC(C)C)C(=O)N[C@H](C(=O)N[C@@H](CCCNC(=N)N)C(=O)NCC(=O)N[C@@H](CCCNC(=N)N)C(=O)NCC(=O)O)C(C)C)[C@@H](C)CC)C(=O)O [liraglutide] | 0.12 | 0.97 |  |  |  |  |  |  |  | 
2 | human GIP(1–42) [hGIP] |  |  | modest reductions in food intake | failed to show detectable responses | 6.37 | 69.4 | remained stable at 4 hours | not 24 hours | significantly improved glucose tolerance | still able to improve glucose tolerance
